Test results: US7008943B2, “1-(Pyrrolidin-1-ylmethyl)-3-(pyrrol-2-ylmethylidene)-2-indolinone derivatives” (Pharmacia & Upjohn Company, priority 2000, dated 2006)

Assays:
[1] = Plasma Stability Test: conversion of prodrug to drug after IV administration to dogs, HPLC analysis of blood plasma; format: in vivo; conditions: IV at 2 mg/mL, blood plasma followed by HPLC for 4 hours following dosing
Experimental: The prodrug (3Z)-3-[(3,5-dimethyl-1H-pyrrol-2-yl)-methylidene]-1-(1-pyrrolidinylmethyl)-1,3-dihydro-2H-indol-2-one was administered IV at 2 mg/mL to dogs. Levels of both prodrug and drug (3(Z)-3-[(3,5-dimethyl-1H-pyrrol-2-yl)-methylidene]-1,3-dihydro-2H-indol-2-one) were followed by HPLC analysis of blood plasma for 4 hours following dosing.

[2] = Aqueous solubility of prodrug versus parent compound; format: physicochemical; conditions: versus parent compound (II)
Text: The prodrug compounds of the present invention have advantages over compounds of Formula (II) by virtue of improved aqueous solubility and formulability. […] It is contemplated that similar enhanced solubility will be observed for other compounds of Formula (I) carrying the pyrrolidin-1-ylmethyl moiety at the nitrogen of the indolinone ring. A general description of the advantages and uses of prodrugs as pharmaceutically useful compounds is given in an article by Waller and George in Br. J Clin. Pharmac., Vol. 28, pp. 497–507, 1989.

Compound: Cc1cc(C)c(/C=C2\C(=O)N(CN3CCCC3)c3ccccc32)[nH]1 [Example 1, (3Z)-3-[(3,5-Dimethyl-1H-pyrrol-2-yl)-methylidene]-1-(1-pyrrolidinylmethyl)-1,3-dihydro-2H-indol-2-one]
- half-life for conversion of the prodrug to drug [1]: 7.3 min
- prodrug converted into drug (from area under the curve of drug concentration vs. time) [1]: 80%
- aqueous solubility compared with the parent compound [2]: increased aqueous solubility
